Consider 7 compounds from ChEMBL document CHEMBL5465560, “Selectivity Literature for EUbOPEN Chemogenomic Library” (2024).

In assay [1] the target is T1, Tyrosine-protein kinase Mer (Homo sapiens) (UniProt Q12866).
T1 sequence (whole entry): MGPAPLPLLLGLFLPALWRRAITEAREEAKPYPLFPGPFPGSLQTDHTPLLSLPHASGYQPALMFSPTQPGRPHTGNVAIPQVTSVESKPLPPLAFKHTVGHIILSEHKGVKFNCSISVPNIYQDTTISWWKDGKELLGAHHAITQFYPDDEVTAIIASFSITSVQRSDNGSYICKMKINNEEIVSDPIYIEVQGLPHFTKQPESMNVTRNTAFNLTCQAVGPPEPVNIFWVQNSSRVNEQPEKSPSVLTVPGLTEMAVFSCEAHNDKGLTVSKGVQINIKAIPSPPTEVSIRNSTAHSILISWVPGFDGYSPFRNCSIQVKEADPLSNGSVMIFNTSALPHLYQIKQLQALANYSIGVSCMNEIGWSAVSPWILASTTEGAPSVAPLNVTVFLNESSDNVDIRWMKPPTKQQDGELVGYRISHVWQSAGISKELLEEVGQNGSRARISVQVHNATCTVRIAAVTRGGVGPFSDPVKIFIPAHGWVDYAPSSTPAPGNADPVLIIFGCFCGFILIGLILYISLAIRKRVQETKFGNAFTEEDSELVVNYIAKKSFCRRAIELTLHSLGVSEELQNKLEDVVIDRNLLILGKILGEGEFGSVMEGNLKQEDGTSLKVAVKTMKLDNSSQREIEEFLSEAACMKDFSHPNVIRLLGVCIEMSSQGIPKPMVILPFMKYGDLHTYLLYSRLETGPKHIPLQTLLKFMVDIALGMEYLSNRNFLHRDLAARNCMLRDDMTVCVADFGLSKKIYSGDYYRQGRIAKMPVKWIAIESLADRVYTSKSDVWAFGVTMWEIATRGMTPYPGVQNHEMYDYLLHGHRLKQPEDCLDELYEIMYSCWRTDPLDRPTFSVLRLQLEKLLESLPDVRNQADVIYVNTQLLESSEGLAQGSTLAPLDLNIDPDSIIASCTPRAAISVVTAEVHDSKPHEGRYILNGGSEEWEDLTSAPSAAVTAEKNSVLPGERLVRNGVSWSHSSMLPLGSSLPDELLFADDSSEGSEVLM
Briefly: Selectivity interaction (Kinase panel (Z-LYTE Assay)) EUB0001632a MERTK. Conditions: at 10 µM.

For assay [2], the target named is STE20/SPS1-related proline-alanine-rich protein kinase (Homo sapiens) (UniProt Q9UEW8). Description: Selectivity interaction (KinomeScan (DiscoverX)) EUB0000666a STK39. The note with it: at 10 µM.
The target of assay [3] is T2, Mitogen-activated protein kinase 13 (Homo sapiens) (UniProt O15264).
T2 sequence (whole entry): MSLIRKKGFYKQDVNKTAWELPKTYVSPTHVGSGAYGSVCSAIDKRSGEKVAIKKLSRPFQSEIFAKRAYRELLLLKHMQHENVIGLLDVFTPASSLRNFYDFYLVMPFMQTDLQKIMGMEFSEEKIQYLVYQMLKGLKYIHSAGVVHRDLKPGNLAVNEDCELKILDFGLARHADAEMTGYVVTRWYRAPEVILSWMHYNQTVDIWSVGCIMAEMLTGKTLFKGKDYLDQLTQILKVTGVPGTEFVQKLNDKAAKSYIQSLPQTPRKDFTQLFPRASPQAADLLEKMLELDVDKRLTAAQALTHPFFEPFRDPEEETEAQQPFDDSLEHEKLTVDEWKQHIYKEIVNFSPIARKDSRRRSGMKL
Briefly: Selectivity interaction (KinomeScan (DiscoverX)) EUB0000655a MAPK13. Conditions: at 10 µM.

The target of assay [4] is T3, SNF-related serine/threonine-protein kinase (Homo sapiens) (UniProt Q9NRH2).
T3 sequence (whole entry): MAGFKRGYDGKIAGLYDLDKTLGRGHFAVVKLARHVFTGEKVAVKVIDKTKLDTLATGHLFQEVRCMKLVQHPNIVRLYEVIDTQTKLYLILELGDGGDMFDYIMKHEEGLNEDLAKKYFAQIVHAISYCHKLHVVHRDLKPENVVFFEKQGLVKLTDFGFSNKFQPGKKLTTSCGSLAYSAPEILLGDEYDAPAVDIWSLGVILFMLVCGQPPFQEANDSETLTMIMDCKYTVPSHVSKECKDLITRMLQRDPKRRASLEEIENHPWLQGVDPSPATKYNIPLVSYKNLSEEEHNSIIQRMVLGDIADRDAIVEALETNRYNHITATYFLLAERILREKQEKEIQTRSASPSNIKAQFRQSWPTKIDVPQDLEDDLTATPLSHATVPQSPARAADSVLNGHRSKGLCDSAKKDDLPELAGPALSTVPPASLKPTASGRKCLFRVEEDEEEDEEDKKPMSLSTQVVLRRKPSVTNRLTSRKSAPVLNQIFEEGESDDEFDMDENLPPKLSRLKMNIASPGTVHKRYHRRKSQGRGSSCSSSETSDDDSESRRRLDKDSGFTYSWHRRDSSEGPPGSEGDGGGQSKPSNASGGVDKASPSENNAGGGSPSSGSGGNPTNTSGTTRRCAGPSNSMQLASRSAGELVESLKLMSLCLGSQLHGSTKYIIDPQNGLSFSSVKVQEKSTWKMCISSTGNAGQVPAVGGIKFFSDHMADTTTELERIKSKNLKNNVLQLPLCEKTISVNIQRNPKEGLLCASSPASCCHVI
Briefly: Selectivity interaction (ActivX KiNativ screen (kinase selectivity in THP-1 cell lysates)) EUB0000639a SNRK. It is filed as subcellular. The note with it: lysate, at 0.04 µM.

The target of assay [5] is Tyrosine-protein kinase ABL2 (Homo sapiens, UniProt P42684). The note with it: at 10 µM.
Assay [6] has as its target T4, Serine/threonine-protein kinase 3 (Homo sapiens) (UniProt Q13188).
T4 sequence (whole entry): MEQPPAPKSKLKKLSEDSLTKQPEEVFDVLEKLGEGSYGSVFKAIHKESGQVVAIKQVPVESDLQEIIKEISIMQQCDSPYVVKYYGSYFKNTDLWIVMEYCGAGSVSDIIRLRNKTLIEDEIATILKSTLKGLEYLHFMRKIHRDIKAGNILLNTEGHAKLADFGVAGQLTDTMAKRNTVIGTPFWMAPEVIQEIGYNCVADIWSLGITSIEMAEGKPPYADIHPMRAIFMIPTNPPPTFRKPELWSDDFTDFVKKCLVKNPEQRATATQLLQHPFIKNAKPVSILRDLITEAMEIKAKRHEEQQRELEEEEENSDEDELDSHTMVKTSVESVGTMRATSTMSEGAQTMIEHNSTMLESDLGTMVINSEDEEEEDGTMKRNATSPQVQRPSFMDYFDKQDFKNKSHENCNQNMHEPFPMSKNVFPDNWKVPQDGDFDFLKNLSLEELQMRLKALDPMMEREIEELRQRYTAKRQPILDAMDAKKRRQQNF
Description: Selectivity interaction (KinomeScan (DiscoverX)) EUB0000695a STK3. The note with it: at 100 nM.

The target in assay [7] is Serine/threonine-protein kinase PLK1 (Homo sapiens, UniProt P53350). Briefly: Selectivity interaction (KinomeScan (DiscoverX)) EUB0000045b PLK1.
Chain of Serine/threonine-protein kinase PLK1 (P53350 whole entry): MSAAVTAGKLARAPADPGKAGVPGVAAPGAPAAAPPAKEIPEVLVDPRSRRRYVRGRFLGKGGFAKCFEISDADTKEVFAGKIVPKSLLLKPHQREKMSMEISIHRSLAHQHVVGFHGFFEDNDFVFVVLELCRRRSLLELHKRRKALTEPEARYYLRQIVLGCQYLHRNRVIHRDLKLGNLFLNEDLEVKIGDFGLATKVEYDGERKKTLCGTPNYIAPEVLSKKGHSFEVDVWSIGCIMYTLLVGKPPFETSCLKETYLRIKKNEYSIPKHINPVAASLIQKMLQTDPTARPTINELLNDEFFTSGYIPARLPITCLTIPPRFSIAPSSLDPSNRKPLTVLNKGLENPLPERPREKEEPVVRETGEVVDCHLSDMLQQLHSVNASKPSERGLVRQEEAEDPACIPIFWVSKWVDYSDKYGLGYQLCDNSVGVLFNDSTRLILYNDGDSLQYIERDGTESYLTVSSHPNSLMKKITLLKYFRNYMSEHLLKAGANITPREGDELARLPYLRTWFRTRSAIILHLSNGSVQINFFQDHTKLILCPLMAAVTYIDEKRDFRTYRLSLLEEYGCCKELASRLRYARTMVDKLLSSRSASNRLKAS

Chain of Tyrosine-protein kinase ABL2 (P42684 whole entry): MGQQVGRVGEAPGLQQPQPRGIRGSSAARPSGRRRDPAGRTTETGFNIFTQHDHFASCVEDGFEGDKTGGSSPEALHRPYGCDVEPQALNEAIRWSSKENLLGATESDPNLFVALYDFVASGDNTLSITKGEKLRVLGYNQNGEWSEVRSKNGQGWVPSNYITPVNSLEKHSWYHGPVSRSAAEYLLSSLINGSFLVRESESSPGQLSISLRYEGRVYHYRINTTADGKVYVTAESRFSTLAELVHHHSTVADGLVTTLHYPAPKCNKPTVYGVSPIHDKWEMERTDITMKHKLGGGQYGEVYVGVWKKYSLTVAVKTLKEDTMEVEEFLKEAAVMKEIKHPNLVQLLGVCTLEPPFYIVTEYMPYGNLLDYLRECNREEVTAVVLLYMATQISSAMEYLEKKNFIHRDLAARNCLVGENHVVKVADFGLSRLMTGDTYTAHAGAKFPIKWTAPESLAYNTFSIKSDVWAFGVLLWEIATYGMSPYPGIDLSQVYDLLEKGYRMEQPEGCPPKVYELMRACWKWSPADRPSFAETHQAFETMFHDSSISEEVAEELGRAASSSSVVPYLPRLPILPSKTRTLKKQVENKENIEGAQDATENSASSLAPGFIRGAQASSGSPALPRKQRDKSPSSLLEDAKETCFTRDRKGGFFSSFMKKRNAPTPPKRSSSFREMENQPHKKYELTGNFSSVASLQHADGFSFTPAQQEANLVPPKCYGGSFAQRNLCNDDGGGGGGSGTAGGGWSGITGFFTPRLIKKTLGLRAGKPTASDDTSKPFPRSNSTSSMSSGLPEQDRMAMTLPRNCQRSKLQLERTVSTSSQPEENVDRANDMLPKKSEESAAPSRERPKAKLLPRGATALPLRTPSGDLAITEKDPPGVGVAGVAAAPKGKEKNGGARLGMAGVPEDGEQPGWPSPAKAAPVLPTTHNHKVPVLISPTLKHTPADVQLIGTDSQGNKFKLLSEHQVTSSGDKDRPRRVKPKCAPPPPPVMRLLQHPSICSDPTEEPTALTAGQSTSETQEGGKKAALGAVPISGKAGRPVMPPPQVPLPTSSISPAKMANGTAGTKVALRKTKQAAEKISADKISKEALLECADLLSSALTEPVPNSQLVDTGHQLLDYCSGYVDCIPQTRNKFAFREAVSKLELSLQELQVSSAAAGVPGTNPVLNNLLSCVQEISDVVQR

`Cn1cc(-n2cnc3c(NCc4nc5cc(Cl)c(Cl)cc5[nH]4)nc(N4CCOCC4)nc32)cn1`: the % of control in assay [1] was found to be 4.55%.
Turning to `O=C(NOC[C@H](O)CO)c1ccc(F)c(F)c1Nc1ccc(I)cc1F`, in assay [2], the % of control came out at 96%.
Take `CN(C)CCOc1ccc(-c2nc(-c3ccncc3)c(-c3ccc4c(c3)CC/C4=N\O)[nH]2)cc1`: in assay [3], the % of control stood at 87%.
As to `CC[C@@H]1[C@H](F)C(=O)N[C@@H]1COc1nccc2cc(C(N)=O)c(OC)cc12` [ZIMLOVISERTIB], the % of inhibition in assay [4] stood at 9.5%.
In assay [5], `CCN(CC)CCCCNc1ncc2cc(-c3cc(OC)cc(OC)c3)c(NC(=O)NC(C)(C)C)nc2n1` showed a % of control of 100%.
Compound `Cc1cc(F)c(C(=O)Nc2cccc(-c3nncn3C(C)C)n2)cc1-n1cnc(C2CC2)c1` returned a % of control in assay [6] of 100%.
In the case of `C=CC(=O)Nc1cc(-n2c(=O)ccc3cnc4ccc(-c5ccc(NS(C)(=O)=O)cc5)cc4c32)ccc1C`, the % of control in assay [7] (at 1 µM) and in assay [7] (at 10 µM) was 100% each time.
